Laboratory results reported in patent publication US20120015907A1, “Furopyridine compounds and uses thereof” (NOVARTIS AG, priority 2010, published 2012).

Tests used:
[1] = biological target: T1, HCV polymerase (Hepatitis C virus genotype 1b, UniProt Q9WMX2); experiment: biochemical; settings: polymerase assay of Biological Example 1; read-out: NS5B polymerase IC50
T1 construct: (His)6 (C)

[2] = system: HCV replicon I389luc-ubi-neo/NS3-3'/ET in ET (Huh-lucubineo-ET) cells; experiment: Replicon assay (Biological Example 2), luciferase read-out; format: cell-based; settings: Hepatitis C virus, luciferase activity 48 hours after compound addition
Outline: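 ET cells stably carry the replicon with adaptive mutations E1202G, […] and K1846T. Compound is added 24 h after plating at 0.1 nM–50 μM final (10-point, 3-fold dilutions) with 0.5% DMSO, and luciferase is read 48 h later. EC50 comes from a Hill-equation fit of % inhibition versus no-compound control.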

Structure (SMILES)	IC50 [1]	IC50 [2]
CNC(=O)c1c(-c2ccc(F)cc2)oc2nc(N(CCCC3CCCS3(=O)=O)S(C)(=O)=O)c(C3CC3)cc12 (single isomer, unassigned) [Example 24.5, 5-Cyclopropyl-6-{[3-(1,1-dioxo-tetrahydrothiophen-2-yl)-propyI]-methanesulfonyl-amino}-2-(4-fluoro-phenyl)-furo[2,3-b]pyridine-3-carboxylic acid methylamide]	1 nM	≤ 100 nM
CNC(=O)c1c(-c2ccc(F)cc2)oc2nc3c(cc12)[C@@H](C)C[C@H](O)CN3S(C)(=O)=O (single isomer, unassigned) [Example 34]	9 nM	≤ 100 nM
CNC(=O)c1c(-c2ccc(C)cc2)oc2nc(N(CCCCCC(=O)O)S(C)(=O)=O)c(C3CC3)cc12 [Example 27.9, 6-(N-(5-cyclopropyl-3-(methylcarbamoyl)-2-p-tolylfuro[2,3-b]pyridin-6-yl)methylsulfonamido) hexanoic acid]	2 nM	≤ 100 nM
CNC(=O)c1c(-c2ccc(C3CC3)cc2)oc2nc(N(CCCS(C)(=O)=O)S(C)(=O)=O)c(C3CC3)cc12 [Example 24.9, 5-cyclopropyl-2-(4-cyclopropylphenyl)-N-methyl-6-(N-(3-(methylsulfonyl)propyl)methylsulfonamido)furo[2,3-b]pyridine-3-carboxamide]	3 nM	≤ 100 nM
CCOC(=O)CCCCN(c1nc2oc(-c3ccc(Cl)cc3)c(C(=O)NC)c2cc1C1CC1)S(C)(=O)=O [Example 26.3, ethyl 5-(N-(2-(4-chlorophenyl)-5-cyclopropyl-3-(methylcarbamoyl)furo[2,3-b]pyridin-6-yl)methylsulfonamido) pentanoate]	3 nM	≤ 100 nM
CNC(=O)c1c(-c2ccc(F)cc2)oc2nc3c(cc12)C(C)CCCN3S(C)(=O)=O (stereo not drawn) [Example 30, 2-(4-Fluoro-phenyl)-9-methanesulfonyl-5-methyl-6,7,8,9-tetrahydro-5H-1-oxa-9,10-diaza-cyclohepta[f]indene-3-carboxylic acid methylamide]	62 nM	≤ 100 nM
CNC(=O)c1c(-c2ccc(F)cc2)oc2nc3c(cc12)CCCCCN3S(C)(=O)=O [Example 36, 2-(4-Fluoro-phenyl)-10-methanesulfonyl-5,6,7,8,9,10-hexahydro-1-oxa-10,11-diaza-cycloocta[f]indene-3-carboxylic acid methylamide]	50 nM	≤ 100 nM
CNC(=O)c1c(-c2ccc(C3CC3)cc2)oc2nc(N(CCCCC(=O)O)S(C)(=O)=O)c(C3CC3)cc12 [Example 27.7, 5-(N-(5-cyclopropyl-2-(4-cyclopropylphenyl)-3-(methylcarbamoyl)furo[2,3-b]pyridin-6-yl)methylsulfonamido) pentanoic acid]	1 nM	≤ 100 nM
CNC(=O)c1c(-c2ccc(F)cc2)oc2nc(N(CCCCC(=O)O)S(C)(=O)=O)c(I)cc12 [Example 19, 5-{[2-(4-Fluoro-phenyl)-5-iodo-3-methylcarbamoyl-furo[2,3-b]pyridin-6-yl]-methanesulfonyl-amino}-pentanoic acid]	9 nM	≥ 5000 nM
CCc1cc2c(C(=O)NC)c(-c3ccc(F)cc3)oc2nc1N(CCCC(C)=O)S(C)(=O)=O [Example 22.95, 5-ethyl-2-(4-fluorophenyl)-N-methyl-6-(N-(4-oxopentyl)methylsulfonamido)furo[2,3-b]pyridine-3-carboxamide]	40 nM	≤ 100 nM
CNC(=O)c1c(-c2ccc(C)cc2)oc2nc(N(CCCC3(C(=O)O)CCCC3)S(C)(=O)=O)c(C3CC3)cc12 [Example 28, 1-(3-(N-(5-cyclopropyl-3-(methylcarbamoyl)-2-p-tolylfuro[2,3-b]pyridin-6-yl)methylsulfonamido)propyl) cyclopentanecarboxylic acid]	1 nM	≤ 100 nM
CNC(=O)c1c(-c2ccc(F)cc2)oc2nc(N(C)S(C)(=O)=O)c(CCCCC(=O)N3CCC[C@H]3C(=O)O)cc12 [Example 4.7, (S)-1-(5-(2-(4-fluorophenyl)-3-(methylcarbamoyl)-6-(N-methylmethylsulfonamido)furo[2,3-b]pyridin-5-yl)pentanoyl)pyrrolidine-2-carboxylic acid]	51 nM	≥ 5000 nM
CNC(=O)c1c(-c2ccc(Cl)cc2)oc2nc(N(CCCCS(C)(=O)=O)S(C)(=O)=O)c(I)cc12 [Example 18.995, 2-(4-chlorophenyl)-5-iodo-N-methyl-6-(N-(4-(methylsulfonyl)butyl)methylsulfonamido)furo[2,3-b]pyridine-3-carboxamide]	14 nM	≤ 100 nM
CNC(=O)c1c(-c2ccc(F)cc2)oc2nc(N(CCCC(C)O)S(C)(=O)=O)c(C3CC3)cc12 (stereo not drawn) [Example 26.4, 5-cyclopropyl-2-(4-fluorophenyl)-6-(N-(4-hydroxypentyl)methylsulfonamido)-N-methylfuro[2,3-b]pyridine-3-carboxamide]	5 nM	≤ 100 nM
CNC(=O)c1c(-c2ccc(C)cc2)oc2nc(N(CCCS(C)(=O)=O)S(C)(=O)=O)c(I)cc12 [Example 18.994, 5-iodo-N-methyl-6-(N-(3-(methylsulfonyl)propyl)methylsulfonamido)-2-p-tolylfuro[2,3-b]pyridine-3-carboxamide]	14 nM	≤ 100 nM
CNC(=O)c1c(-c2ccc(C)cc2)oc2nc(N(CC[C@H]3C[C@@H]3C(=O)O)S(C)(=O)=O)c(C3CC3)cc12 [Example 28.2, (1S,2R)-2-(2-(N-(5-cyclopropyl-3-(methylcarbamoyl)-2-p-tolylfuro[2,3-b]pyridin-6-yl)methylsulfonamido)ethyl) cyclopropanecarboxylic acid]	2 nM	≤ 100 nM
CNC(=O)c1c(-c2ccc(F)cc2)oc2nc(N(C)S(C)(=O)=O)c(CCCC(=O)NS(C)(=O)=O)cc12 [Example 4.5, 2-(4-fluorophenyl)-N-methyl-6-(N-methylmethylsulfonamido)-5-(4-(methylsulfonamido)-4-oxobutyl)furo[2,3-b]pyridine-3-carboxamide]	206 nM	≥ 5000 nM
CCc1cc2c(C(=O)NC)c(-c3ccc(F)cc3)oc2nc1N(CCCC1CCCS1(=O)=O)S(C)(=O)=O (racemic) [Example 22.98, 6-{[3-(1,1-Dioxo-tetrahydro-1lambdathiophen-2-yl)-propyl]-methanesulfonyl-amino}-5-ethyl-2-(4-fluoro-phenyl)-furo[2,3-b]pyridine-3-carboxylic acid methylamide]	11 nM	≤ 100 nM
